# Tested on: trained panellists
# Assay: Sensory evaluation of tablets by 11 trained panellists
# Type: in vivo
# Protocol: Bars coloured black denote a significant difference in a particular taste/sensory characteristic. Unshaded bars denote that there is no significant difference in the characteristic. A positive number represents an increased sensory response of the co-crystal compared to the physical mixture.
# Tablets for sensory evaluation were prepared using a Romaco Kilian Styl'One single-stroke tablet press. […] The tablets were prepared with three compressions of 300 ms and an interval of 200 ms.
# Each of the panellists received a tray with two tablets presented on plastic plates coded with random 3-digit numbers. The tablets had to be crunched with the front teeth and kept in mouth to dissolve slowly (method 1). Alternatively, tablets could be crunched with the front teeth and chewed constantly in the mouth until complete dissolution occurred (method 2).
# Afterwards the panellists were asked to rate the taste of the tablets in respect of the following 12 categories: upfront saltiness (1), overall saltiness (2), sweetness (3), sourness (4), umami (5), friable (6), melting (7), overall persistence (8), saltiness persistence (9), sweetness persistence (10), sourness persistence (11), and tingling (12).
smiles,measurement,setting,value
"N[C@@H](CO)C(=O)O.N[C@@H](CO)C(=O)O.[Cl-].[Na+] [(L-serine)2.sodium chloride co-crystals, (L-serine)2.sodium chloride]",perceived salty taste versus corresponding physical mix,"25 mg sodium chloride per tablet, during and after consumption",significantly more salty
same,overall saltiness versus physical mix,"11 trained panellists, FIG. 2",superior
same,saltiness persistence versus physical mix,"11 trained panellists, FIG. 2",superior
same,upfront saltiness versus physical mix,"11 trained panellists, FIG. 2",superior

# From patent publication US20190328016A1, “SALT COMPOSITION INCLUDING SARCOSINE” (NESTEC S.A., priority 2016, published 2019)
